What was measured:
[1] = system: Taxol-sensitive A549 cancer cells; assay: MTT cytotoxicity, taxol-sensitive A549; assay type: cell-based; conditions: 72 h
Description: (§1) All prepared cobalt-polypyridyl complexes were dissolved in DMSO at a final concentration of 50 mmol/L and stored at −20° C. before use. Cytotoxicity was assessed by using the 3-(4,5-dimethylthiazol-2-yl)-2,5-diphenyltetrazolium bromide (MTT) (5.0 mg/ml) assay as previously described (Wong, V. K. et al., Cell Death Dis, 2013, 4, e720). Briefly, 4×10^3 cells per well were seeded in 96-well plates before drug treatments. After overnight culture, the cells were then exposed to different concentrations of selected compounds (0.039-100 μmol/L) for 72 h. Cells without drug treatment were used as control. Subsequently, MTT (10 μL) solution was added to each well and incubated at 37° C. for 4 h followed by the addition of 100 μL solubilization buffer (10% SDS in 0.01 mol/L HCl) and overnight incubation. A570 nm was then determined in each well on the next day. The percentage of cell viability was calculated using the following formula: Cell viability (%)=Atreated/Acontrol×100. Data were obtained from three independent experiments.

[2] = system: LC3-II protein conversion; assay: Western blotting of LC3-I to LC3-II conversion; assay type: cell-based; conditions: Western blot; complex at 10 μM and 20 μM
Description: After drug treatment, adherent and floating cells were lysed with RIPA lysis buffer. Protein concentrations were determined using the Bio-Rad protein assay (Bio-Rad Laboratories, Inc., Hercules, Calif., USA). The cell lysates of samples were subjected to electrophoresis on SDS polyacrylamide gels and transferred to Hybond enhanced chemiluminescence nitrocellulose membranes (Amersham Biosciences, Piscataway, N.J.), which were then blocked with 5% non-fat dry milk protein for 1 h. Membranes were then incubated with the indicated primary antibodies overnight at 4° C. The binding of the antibody was visualized by peroxidase-coupled secondary antibody using the ECL Western Blotting Detection Reagents (Invitrogen, Paisley, Scotland, UK). Band intensities were quantified by using the software ImageJ (NIH, Bethesda, Md., USA).

HepG2 (liver cancer) = assay: MTT cytotoxicity assay, HepG2; assay type: cell-based; conditions: 72 h
Description: as §1, with “experiments. Cells include HeLa cells (cervical cancer), MCF-7 (breast cancer), H1299, H1975, A549 and LLC-1 (lung cancer), HepG2 and Hep3B (liver cancer) and LO2 (normal human hepatocytes).” for “experiments.”

[3] = system: HCT116 p53^−/− colon cancer cells; assay: MTT cytotoxicity, HCT116 p53-/-; assay type: cell-based, human
Description: as §1
(§2) Cisplatin-sensitive or -resistant A2780, OV2008 and C13 cancer cells were provided by Prof. Benjamin Tsang (Department of Obstetrics and Gynecology and Department of Cellular and Molecular Medicine, University of Ottawa, Canada). HCT116 p53^+/+ and p53^−/− isogenic human colon cancer cells were provided by Professor Bert Vogelstein (Ludwig Center at Johns Hopkins, Howard Hughes Medical Institute, USA). All media were supplemented with 10% fetal bovine serum and the antibiotics penicillin (50 U/ml) and streptomycin (50 μg/ml; Invitrogen, Paisley, Scotland, UK). All cell cultures were incubated at 37° C. in a 5% humidified CO2 incubator.

[4] = system: cisplatin-resistant A2780 ovarian cancer cells; assay: MTT cytotoxicity, cisplatin-resistant A2780; assay type: cell-based
Description: as §1, §2

Hep 3B (liver cancer) = assay: MTT cytotoxicity assay, Hep3B; assay type: cell-based; conditions: 72 h
Description: as §1, with “experiments. Cells include HeLa cells (cervical cancer), MCF-7 (breast cancer), H1299, H1975, A549 and LLC-1 (lung cancer), HepG2 and Hep3B (liver cancer) and LO2 (normal human hepatocytes).” for “experiments.”

MCF-7 (breast cancer) = assay: MTT cytotoxicity assay, MCF-7; assay type: cell-based; conditions: MCF-7, MTT, 72 h
Description: as §1, with “experiments. Cells include HeLa cells (cervical cancer), MCF-7 (breast cancer), H1299, H1975, A549 and LLC-1 (lung cancer), HepG2 and Hep3B (liver cancer) and LO2 (normal human hepatocytes).” for “experiments.”

[5] = system: human H1299 lung cancer cells; conditions: H1299, sub-lethal doses 0.2, 0.5, 1.0 μM
Description: The cancer cell invasion assay was performed in a Cell Invasion Chamber, a 24-well tissue culture plate with cell culture inserts that contain an […] pore size polycarbonate membrane over a thin layer of dried ECMatrix™ (CHEMICON).
To determine the inhibitory effect of cobalt-polypyridyl complexes of the present invention in cancer cell invasion, human H1299 lung cancer cells with well-known cell invasion ability were treated with the cobalt-polypyridyl complex of Formula (IV) in its sub-lethal (non-toxic) doses.

[6] = system: OV2008 cervical cancer cells; assay: MTT cytotoxicity, OV2008 (cisplatin-sensitive); assay type: cell-based; conditions: 72 h
Description: as §1, §2

[7] = system: HCT116 p53^+/+ colon cancer cells; assay: MTT cytotoxicity, HCT116 p53+/+; assay type: cell-based, human; conditions: 72 h
Description: as §1, §2

[8] = system: HeLa cells (cervical cancer); assay: MTT cytotoxicity assay, HeLa; assay type: cell-based; conditions: 72 h
Description: as §1, with “experiments. Cells include HeLa cells (cervical cancer), MCF-7 (breast cancer), H1299, H1975, A549 and LLC-1 (lung cancer), HepG2 and Hep3B (liver cancer) and LO2 (normal human hepatocytes).” for “experiments.”

[9] = system: endogenous LC3-II puncta formation in HeLa cancer cells; conditions: HeLa, 5, 10, 20 μM
Description: The detection of endogenous LC3 was conducted using immunofluorescence staining method as described below. HeLa cancer cells treated with the cobalt-polypyridyl complex of Formula (IV) (with PF6^− as counterion) on cover slips were fixed with 4% paraformaldehyde (Sigma) for 20 min at room temperature and then rinsed with PBS. Coverslips were immersed in methanol at room temperature for 2 min. After washing with PBS, the cells were then incubated with anti-LC3 (1:200) in TBST (100 mM TrisHCl, pH 7.5, 150 mM NaCl, 0.05% Tween 20 and 5% BSA) overnight at 4° C. […] The coverslips were then mounted with FluorSave™ mounting media (Calbiochem, San Diego, Calif., USA) for fluorescence imaging and localization of LC3 autophagosomes were captured under the API Delta Vision Live-cell Imaging System (Applied Precision Inc., GE Healthcare Company, Washington, USA). To quantify autophagy, guidelines of autophagy quantitation were followed (Klionsky, D. J. et al., Autophagy, 2016, 12, 1-222). The percentage of cells with autophagic induction was calculated by the number of the cells with increased formation of punctate LC3 fluorescence dots (≧10 dots/cell) over the total number of immunofluorescence-positive cells in the same field. A minimum of 1000 cells from randomly selected fields were scored.

[10] = system: cisplatin-sensitive SGC-7901 gastric cancer cells; assay: MTT cytotoxicity, cisplatin-sensitive SGC-7901; assay type: cell-based; conditions: SGC-7901, MTT, 72 h
Description: as §1

[11] = system: cisplatin-resistant SGC-7901 gastric cancer cells; assay: MTT cytotoxicity, cisplatin-resistant SGC-7901; assay type: cell-based
Description: as §1
(§3) All cells were obtained from the American Type Culture Collection (Rockville, Md., USA) unless otherwise specified. Immortalized wild-type and Atg7-deficient mouse embryonic fibroblasts (MEFs) were provided by Professor Masaaki Komatsu (Juntendo University, School of Medicine, Japan). Taxol-resistant types of A549, MCF-7, HCT-8 cancer cells, cisplatin-resistant SGC7901 cancer cells were purchased from KeyGEN BioTECH, China.

H1975 (lung cancer) = assay: MTT cytotoxicity assay, H1975; assay type: cell-based; conditions: 72 h
Description: as §1, with “experiments. Cells include HeLa cells (cervical cancer), MCF-7 (breast cancer), H1299, H1975, A549 and LLC-1 (lung cancer), HepG2 and Hep3B (liver cancer) and LO2 (normal human hepatocytes).” for “experiments.”

[12] = system: Taxol-resistant A549 cancer cells; assay: MTT cytotoxicity, taxol-resistant A549; assay type: cell-based
Description: as §1, §3

[13] = system: Taxol-sensitive MCF-7 cancer cells; assay: MTT cytotoxicity, taxol-sensitive MCF-7; assay type: cell-based; conditions: MCF-7, MTT, 72 h
Description: as §1

Cc1ccnc(-c2cc(C)ccn2)c1.Cc1ccnc(-c2cc(C)ccn2)c1.Cc1ccnc(-c2cc(C)ccn2)c1.F[P-](F)(F)(F)(F)F.F[P-](F)(F)(F)(F)F.F[P-](F)(F)(F)(F)F.[Co+3] [complex (IV), [Co^III(4,4′-Me2-Bpy)3.](PF6)3]
IC50 [1]: 11.5 µM
LC3-I to LC3-II protein conversion [2]: dose-dependently increased the LC3-II protein conversion
IC50 (HepG2 (liver cancer)): 5.44 µM
Resistant Factor ([3]; HCT116 p53^−/− over HCT116 p53^+/+): 0.59
IC50 ([3]; MTT, 72 h): 9.07 µM
IC50 ([4]; A2780, MTT, 72 h): 10.7 µM
Resistant Factor ([4]; A2780, cisplatin-resistant over cisplatin-sensitive): 0.87
IC50 (Hep 3B (liver cancer)): 3.7 µM
IC50 (MCF-7 (breast cancer)): 6.03 µM
cell invasion (fluorescence signal of invaded cells) [5]: dose-dependently decrease the cell fluorescence signal
IC50 [6]: 7.62 µM
IC50 [7]: 15.4 µM
IC50 [8]: 11.9 µM
endogenous LC3-II puncta formation (autophagy induction) [9]: induce autophagy in dose-dependent manner
IC50 [10]: 11.1 µM
IC50 ([11]; SGC-7901, MTT, 72 h): 12.6 µM
Resistant Factor ([11]; SGC-7901, cisplatin-resistant over cisplatin-sensitive): 1.14
IC50 (H1975 (lung cancer)): 8.84 µM
IC50 ([12]; A549, MTT, 72 h): 2.85 µM
Resistant Factor ([12]; A549, IC50 taxol-resistant over IC50 taxol-sensitive): 0.25
IC50 [13]: 4 µM

Reference: US9895338B1, “Cobalt-polypyridyl complex for treatment of cancer, a pharmaceutical composition and a kit comprising it” (Macau University of Science and Technology, priority 2016, dated 2018)
